Data reported in patent publication US11083195B2, “Insecticidal compositions and methods to kill insects” (priority 2019, dated 2021).
Like-named read-outs stand apart in the source and are kept apart here.

How the values were obtained:
[1] = tested on: Drosophila suzukii; format: in vivo; settings: vial; for Statistical comparison of mortalities in words: second experiment, 7 days, log-rank pairwise comparisons (FIG. 3); for Mortality (%) of flies when fed different sugar formulations: Table 1, first experiment; for Mortality (%) of flies when fed different erythritol and sucralose formulations: Table 2, second experiment
Protocol: Materials and Methods. Flies and sugars: Drosophila suzukii used in these experiments were from a colony maintained at 22±5° C. under a photoperiod of L:D 16:8 h, and a relative humidity of 60±5% RH at the Horticultural Crops Research Unit, USDA ARS in Corvallis, Oreg. Wildtype flies collected from infested fruits in Corvallis, Oreg. were used to start the colony. Standard rearing methods and diet are described by Woltz, J. M., et al., Journal of Applied Entomology, 139:759-770 (2015). Newly emerged adult males and females were collected daily and maintained in cages with water and diet until they were specific ages for experimentation. Sugars used in this study, meso-erythritol (>99%), sucrose (>99%), and sucralose (>99%), were purchased from Fisher Scientific (Hampton, N.H.).
Different sugar formulations on the fly survivorship: Ten 5-day old flies (5 males and 5 females) were introduced into a plastic vial and given a tube (1.5 ml) containing different water-based solutions. Two combinations of erythritol (Ery) mixed with sucrose (Suc) or sucralose (Sul) were introduced to flies in a plastic vial for 7 days (FIG. 1). For the first experiment various pairs were tested (Table 1): Suc 0.5 M, Ery 0.5 M, Ery 1.5 M+Suc 0.5 M, and Ery 1.5 M+Suc 0.1 M. For the second experiment various pairs were tested (Table 2): Suc 0.5 M, Ery 0.5 M, Sul 0.5 M, Sul 0.1 M, Ery 1.5 M+Sul 0.5 M, Ery 1.5 M+Sul 0.1 M, Ery 2.0 M+Sul 0.1 M, and Ery 2.0 M+Sul 0.01 M. Survivorship of flies was checked daily for 7 days. Each pair per experiment was replicated at least three times.

[2] = tested on: Drosophila suzukii; assay: Fly mortality in the cage experiment; format: in vivo; settings: 7 days (FIG. 7)
Protocol: Materials and Methods. Flies and sugars: Drosophila suzukii used in these experiments were from a colony maintained at 22±5° C. under a photoperiod of L:D 16:8 h, and a relative humidity of 60±5% RH at the Horticultural Crops Research Unit, USDA ARS in Corvallis, Oreg. Wildtype flies collected from infested fruits in Corvallis, Oreg. were used to start the colony. Standard rearing methods and diet are described by Woltz, J. M., et al., Journal of Applied Entomology, 139:759-770 (2015). Newly emerged adult males and females were collected daily and maintained in cages with water and diet until they were specific ages for experimentation. […] Effect of erythritol formulations with sucrose or sucralose on fly mortality in the cage experiment: Two combinations of erythritol (Ery) mixed with sucrose (Suc) or sucralose (Sul) were introduced to ten flies in a cage (25 cm wide×25 cm deep×28 cm height) for 7 days (FIG. 6). […] The cage experiment shared similar results with both the vial and cup experiments (FIG. 2, FIG. 5, FIG. 7). In summary, the erythritol/sucralose formulation will not affect human health. The erythritol/sucralose formulation can be directly applied as an insecticide for insects such as Drosophila suzukii. […] The formulations can be used as a phagostimulant with conventional or biological insecticides. […]

Structure (SMILES): OC[C@@H](O)[C@@H](O)CO [Erythritol (Ery) 0.5M, meso-erythritol]
- Statistical comparison of mortalities in words [1]: statistically the same values
- Statistical comparison of results in words [2]: statistically similar

Structure (SMILES): OC[C@H]1O[C@H](O[C@]2(CCl)O[C@H](CCl)[C@@H](O)[C@@H]2O)[C@H](O)[C@@H](O)[C@H]1Cl [Sucralose (Sul) 0.5M, sucralose]
- Statistical comparison of mortalities in words [1]: statistically the same effect

Structure (SMILES): OC[C@H]1O[C@@](CO)(O[C@H]2O[C@H](CO)[C@@H](O)[C@H](O)[C@H]2O)[C@@H](O)[C@@H]1O [Sucrose (Suc) 0.5M, sucrose]
- Mortality (%) of flies when fed different sugar formulations ([1]; Day1): 1.3%
- Mortality (%) of flies when fed different sugar formulations ([1]; Day2): 1.3%
- Mortality (%) of flies when fed different sugar formulations ([1]; Day3): 3.8%
- Mortality (%) of flies when fed different sugar formulations ([1]; Day4): 5.0%
- Mortality (%) of flies when fed different sugar formulations ([1]; Day5): 5.0%
- Mortality (%) of flies when fed different sugar formulations ([1]; Day6): 6.3%
- Mortality (%) of flies when fed different sugar formulations ([1]; Day7): 11.3%
- Mortality (%) of flies when fed different erythritol and sucralose formulations ([1]; Day 1): 0.0%
- Mortality (%) of flies when fed different erythritol and sucralose formulations ([1]; Day 2): 2.5%
- Mortality (%) of flies when fed different erythritol and sucralose formulations ([1]; Day 3): 2.5%
- Mortality (%) of flies when fed different erythritol and sucralose formulations ([1]; Day 4): 2.5%
- Mortality (%) of flies when fed different erythritol and sucralose formulations ([1]; Day 5): 5.0%
- Mortality (%) of flies when fed different erythritol and sucralose formulations ([1]; Day 6): 5.0%
- Mortality (%) of flies when fed different erythritol and sucralose formulations ([1]; Day 7): 6.3%

Structure (SMILES): OC[C@H]1O[C@H](O[C@]2(CCl)O[C@H](CCl)[C@@H](O)[C@@H]2O)[C@H](O)[C@@H](O)[C@H]1Cl [Sul 0.1M, sucralose]
- Statistical comparison of mortalities in words [1]: statistically the same effect
